Measured values published in patent US12691070B2, “Cationic lipids and preparation method thereof” (RiboX Therapeutics HK Limited, priority 2023, dated 2026).

Legend:
[1] = LNP size and polydispersity index (PDI) by dynamic light scattering; assay type: physicochemical; settings: LNP with cirRNA (SEQ ID NO: 1); for Size: in nm (unit assumed)
Summary of the method: (§1)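 Ribogreen fluorescence with and without Triton X-100 gave encapsulation as 100% − (intact/lysed) signal; DLS size, PDI and zeta potential measured on a Zetasizer. Particles: 50:10:38.5:1.5 lipid mix, luciferase circRNA or mRNA, lipid:nucleotide 15 or 6, microfluidic assembly at pH 4.5, PBS-dialyzed.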

[2] = LNP zeta potential (Zetasizer); assay type: physicochemical; settings: LNP with cirRNA (SEQ ID NO: 1)
Summary of the method: as §1

[3] = RNA encapsulation efficacy by Quant-IT Ribogreen kit; assay type: physicochemical; settings: LNP with cirRNA (SEQ ID NO: 1)
Summary of the method: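 Ribogreen read-out: encapsulation = 100% − (signal of intact RNA-LNPs / signal with Triton X-100). Particles: ionizable lipid:DSPC:Chol:DMG-PEG2000 50:10:38.5:1.5, ionizable lipid:ribonucleotide 15 or 6, final lipid 1.5–6 mM, PBS-dialyzed.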

Hep G2 cells [4] = assay: In vitro expression of firefly-luciferase, Hep G2; assay type: cell-based; settings: cirRNA (SEQ ID NO: 1) LNPs; firefly-luciferase luminescence; Hep G2 cells
Summary of the method: (§2)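 Both cell lines receive RNA-LNPs carrying firefly-luciferase RNA at 100 ng/mL. Lysis follows washing at 72 h post-transfection, and luciferase activity is then quantified on a luminometer using a commercial luciferase assay reagent.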

RAW 264.7 cells [5] = assay: In vitro expression of firefly-luciferase, RAW 264.7; assay type: cell-based; settings: cirRNA (SEQ ID NO: 1) LNPs; firefly-luciferase luminescence; RAW 264.7 cells
Summary of the method: as §2

Hep G2 cells [6] = assay: In vitro toxicity (CellTiter-Glo cell viability), Hep G2; assay type: cell-based; settings: cirRNA (SEQ ID NO: 1) LNPs; Hep G2 cells;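 also: percent of untreated cells luminescence signal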
Summary of the method: (§3)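 Viability after a 72 h incubation with 1 μg/mL RNA-LNP formulations was assessed luminometrically using CellTiter-Glo.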

RAW 264.7 cells [7] = assay: In vitro toxicity (CellTiter-Glo cell viability), RAW 264.7; assay type: cell-based; settings: cirRNA (SEQ ID NO: 1) LNPs; RAW 264.7 cells;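 also: percent of untreated cells luminescence signal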
Summary of the method: as §3

BALB/C mice = assay: In vivo expression, whole-body luminescence (IVIS); settings: cirRNA (SEQ ID NO: 1) LNPs, BALB/C mice
Method: 6-8 week old, female BALB/C mice were injected with 0.05 mg*kg-1 of RNA-LNPs encoding for firefly-luciferase by intravenous injection. At 6 hours post injection, animals were intraperitoneally injected with 15 mg/ml of Luciferin substrate and whole-body luminescence was determined by a bioluminescent in vivo imaging system (IVIS).

Row | Compound | PDI [1] | Size [1] | Zeta (mV) [2] [mV] | Encapsulation Efficiency % [3] [%] | In vitro Expression HepG2 (Hep G2 cells [4]) | In vitro Expression RAW (RAW 264.7 cells [5]) | In vitro Viability HepG2 (Hep G2 cells [6]) [%] | In vitro Viability RAW (RAW 264.7 cells [7]) [%] | In vivo Expression (Whole Body) (BALB/C mice)
1 | CCCCC/C=C\C/C=C\CCCCCCCCN(CCCCCCCC/C=C\C/C=C\CCCCC)CCOC(=O)NCCN1CCOCC1 [Lipid 36, 2-(di((9Z,12Z)-octadeca-9,12-dien-1-yl)amino)ethyl (2-morpholinoethyl)carbamate] | 0.138 | 125.4 | −3.556 | 96 | 9.18E+04 | 2.03E+04 | 82 | 95 | 1.21E+05
2 | CCCCC/C=C\C/C=C\CCCCCCCCN(CCCCCC(=O)OCC(CCCCCCCC)CCCCCCCCCC)CCOC(=O)NCCN1CCN(C)CC1 (stereo not drawn) [Lipid 78, 2-octyldodecyl 6-((2-(((2-(4-methylpiperazin-1-yl)ethyl)carbamoyl)oxy)ethyl)((9Z,12Z)-octadeca-9,12-dien-1-yl)amino)hexanoate] | 0.0918 | 110 | 9.83 | 100 | 1.31E+05 | 7.80E+03 | 113 | 106 | 4.92E+05
3 | CCCCC/C=C\C/C=C\CCCCCCCCN(CCCCCC(=O)OCC(CCCCCCCC)CCCCCCCCCC)CCOC(=O)NCCN1CCOCC1 (stereo not drawn) [Lipid 79, 2-octyldodecyl 6-((2-(((2-morpholinoethyl)carbamoyl)oxy)ethyl)((9Z,12Z)-octadeca-9,12-dien-1-yl)amino)hexanoate] | 0.2181 | 99.18 | −2.908 | 93 | 3.94E+03 | 4.60E+01 | 104 | 104 | 4.70E+07
4 | CCCCCCCCC(CCCCCCCC)OC(=O)CCCCCCCN(CCCCCCCCOC(=O)C(CCCCCC)CCCCCCCC)CCOC(=O)NCCCn1ccnc1 (stereo not drawn) [Lipid 147, 8-((2-(((3-(1H-imidazol-1-yl)propyl)carbamoyl)oxy)ethyl)(8-(heptadecan-9-yloxy)-8-oxooctyl)amino)octyl 2-hexyldecanoate] | 0.07303 | 53.54 | 4.888 | 86 | 1.60E+04 | 7.92E+03 | 87 | 65 | 5.02E+07
5 | CCCCCCCOC(=O)CCCCCCCCCN(CCCCCCCCCC(=O)OCCCCCCC)CCOC(=O)NCCCN(CC)CC [Lipid 122, heptyl 3-ethyl-12-(10-(heptyloxy)-10-oxodecyl)-8-oxo-9-oxa-3,7,12-triazadocosan-22-oate] | 0.187 | 134.6 | 10.84 | 96 | 2.48E+03 | 2.24E+04 | 17 | 8 | 1.43E+05
6 | CCCCCCCCC(CCCCCCCC)OC(=O)CCCCCCCN(CCCCCCCCOC(=O)C(CCCCCC)CCCCCCCC)CCNC(=O)OCCN(C)C (stereo not drawn) [Lipid 279] | 0.2722 | 87.32 | −0.06404 | 95 | 5.05E+06 | 1.62E+05 | 23 | 55 | 3.67E+07
7 | CCCCC/C=C\C/C=C\CCCCCCCCN(CCCCCCCC/C=C\CCCCCCCC)CCOC(=O)NCCN(C)C [Lipid 67, 2-(((Z)-octadec-9-en-1-yl)((9Z,12Z)-octadeca-9,12-dien-1-yl)amino)ethyl (2-(dimethylamino)ethyl)carbamate] | 0.087 | 142.9 | 8.392 | 99 | 1.21E+05 | 5.99E+02 | 120 | 107 | 6.00E+07
8 | CCCCCCCCC(CCCCCCCC)OC(=O)CCCCCCCN(CCCCCCCCOC(=O)C(CCCCCC)CCCCCCCC)CCCOC(=O)NCCN1CCC1 (stereo not drawn) [Lipid 353] | 0.2483 | 116.6 | 4.334 | 95 | 4.17E+04 | 3.38E+03 | 37 | 40 | 1.48E+06
9 | CCCCC/C=C\CCOC(=O)CCCCCN(CCCCCCCCOC(=O)C(CCCCCC)CCCCCCCC)CCOC(=O)NCCN1CCCC1 (stereo not drawn) [Lipid 191] | 0.2327 | 79.79 | 12.32 | 91 | 4.43E+04 | 1.22E+03 | 92 | 4 | 1.02E+07
10 | CCCCCCCCCC(=O)OCCCCCCCN(CCCCCCCCOC(=O)C(CCCCCC)CCCCCCCC)CCCOC(=O)NCCN1CCN(C)CC1 (stereo not drawn) [Lipid 362] | 0.3944 | 88.25 | 11.87 | 89 | 3.82E+04 | 1.99E+03 | 106 | 0 | 1.68E+06
11 | CCCCCCCCCCC(CCCCCCCC)COC(=O)CCCCCN(CCCCCC(=O)OCC(CCCCCCCC)CCCCCCCCCC)CCOC(=O)NCCCn1ccnc1 (stereo not drawn) [Lipid 167] | 0.0668 | 61.26 | −3.412 | 82 | 8.85E+04 | 2.79E+04 | 102 | 90 | 9.22E+06
12 | CCCCCCCC/C=C\CCCCCCCCN(CCCCCCCCOC(=O)C(CCCCCC)CCCCCCCC)CCOC(=O)NCCN(C)C (stereo not drawn) [Lipid 211] | 0.2243 | 97.77 | 7.113 | 94 | 1.14E+07 | 2.36E+05 | 90 | 91 | 1.09E+07
13 | CCCCCCCCCCCOC(=O)CCCCCN(CCCCCCCCOC(=O)C(CCCCCC)CCCCCCCC)CCOC(=O)NCCN1CCCC1 (stereo not drawn) [Lipid 226] | 0.298 | 115.7 | 14.86 | 95 | 7.79E+05 | 9.79E+03 | 91 | 108 | 2.20E+07
14 | CCCCCCCCCCCOC(=O)CCCCCN(CCCCCCCCOC(=O)C(CCCCCC)CCCCCCCC)CCOC(=O)NCCN1CCN(C)CC1 (stereo not drawn) [Lipid 222] | 0.4109 | 98.73 | 26.75 | 97 | 1.63E+06 | 8.85E+04 | 42 | 87 | 1.59E+06
15 | CCCCC/C=C\CCOC(=O)CCCCCN(CCCCCCCCOC(=O)C(CCCCCC)CCCCCCCC)CCOC(=O)NCCN1CCCCC1 (stereo not drawn) [Lipid 192] | 0.1344 | 76.52 | −7.77 | 92 | 4.18E+04 | 8.42E+03 | 94 | 86 | 8.52E+07
16 | CCCCCCCCCCC(CCCCCCCC)COC(=O)CCCCCN(CCCCCC(=O)OCC(CCCCCCCC)CCCCCCCCCC)CCOC(=O)NCCN1CCN(C)CC1 (stereo not drawn) [Lipid 173] | 0.3423 | 73.65 | −0.5735 | 82 | 3.32E+07 | 9.48E+05 | 57 | 90 | 3.45E+07
17 | CCCCCCCCCCC(CCCCCCCC)COC(=O)CCCCCN(CCCCCC(=O)OCC(CCCCCCCC)CCCCCCCCCC)CCCOC(=O)NCCN1CCN(C)CC1 (stereo not drawn) [Lipid 367] | 0.2544 | 131.6 | 0.7313 | 91 | 5.88E+05 | 2.48E+04 | 85 | 90 | 1.74E+06
